# Laboratory results reported in PubChem BioAssay (NCI).
#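 Each compound was tested at five concentrations against cells in 96-well plates for 48 hours. TGI: concentration producing complete growth inhibition.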
# Columns and labels:
# Test in all cases: NCI-60 cell line screen, 48 h
# EKVX NSCLC = tested on: EKVX NSCLC
# NCI/ADR-RES ovarian = tested on: NCI/ADR-RES ovarian
# HCC-2998 colon = tested on: HCC-2998 colon
# HL-60(TB) leukemia = tested on: HL-60(TB) leukemia
# TK-10 renal = tested on: TK-10 renal
# MDA-MB-435 = tested on: MDA-MB-435
# SN12C renal = tested on: SN12C renal
# IGROV1 ovarian = tested on: IGROV1 ovarian
# HCT-15 colon = tested on: HCT-15 colon
# OVCAR-5 ovarian = tested on: OVCAR-5 ovarian
# UO-31 renal = tested on: UO-31 renal
smiles,measurement,setting,value
CCOC(=O)c1c(SCCN2CCCC2)n(-c2ccccc2)c(=S)n(-c2ccccc2)c1=O,TGI,EKVX NSCLC,27 µM
same,TGI,NCI/ADR-RES ovarian,> 92 µM
same,TGI,HCC-2998 colon,3.53 µM
same,TGI,HL-60(TB) leukemia,3.52 µM
same,TGI,TK-10 renal,3.06 µM
same,TGI,MDA-MB-435,5.95 µM
same,TGI,SN12C renal,3.18 µM
same,TGI,IGROV1 ovarian,4.47 µM
same,TGI,HCT-15 colon,5.54 µM
same,TGI,OVCAR-5 ovarian,> 59.5 µM
C=CC/C(C(=O)OC)=C(/C(=O)OC)N(CCC)CCC,TGI,EKVX NSCLC,> 100 µM
same,TGI,NCI/ADR-RES ovarian,> 100 µM
same,TGI,HCC-2998 colon,> 100 µM
same,TGI,HL-60(TB) leukemia,64.4 µM
same,TGI,UO-31 renal,> 100 µM
same,TGI,TK-10 renal,> 100 µM
same,TGI,MDA-MB-435,> 100 µM
same,TGI,SN12C renal,> 100 µM
same,TGI,IGROV1 ovarian,> 100 µM
same,TGI,HCT-15 colon,> 100 µM
same,TGI,OVCAR-5 ovarian,> 100 µM
CC1=CC=CC(C)(C)CC1(O[Si](C)(C)C)C(F)(F)F (stereo not given),TGI,EKVX NSCLC,> 100 µM
same,TGI,NCI/ADR-RES ovarian,> 100 µM
same,TGI,HCC-2998 colon,> 100 µM
same,TGI,HL-60(TB) leukemia,> 100 µM
same,TGI,UO-31 renal,> 100 µM
same,TGI,TK-10 renal,> 100 µM
same,TGI,MDA-MB-435,> 100 µM
same,TGI,SN12C renal,> 100 µM
same,TGI,IGROV1 ovarian,> 100 µM
same,TGI,HCT-15 colon,> 100 µM
same,TGI,OVCAR-5 ovarian,> 100 µM
O=C(O[C@H](/C=C/c1ccccc1)P1(=O)N(Cc2ccccc2)[C@@H]2CCCC[C@H]2N1Cc1ccccc1)c1ccccc1,TGI,EKVX NSCLC,68 µM
same,TGI,NCI/ADR-RES ovarian,43.1 µM
same,TGI,HCC-2998 colon,> 100 µM
same,TGI,HL-60(TB) leukemia,> 100 µM
same,TGI,UO-31 renal,> 100 µM
same,TGI,TK-10 renal,> 100 µM
same,TGI,MDA-MB-435,96.3 µM
same,TGI,SN12C renal,9.68 µM
same,TGI,IGROV1 ovarian,15.8 µM
same,TGI,HCT-15 colon,11.1 µM
same,TGI,OVCAR-5 ovarian,> 100 µM
O=C1OC[C@@H]2Cc3c([nH]c4ccccc34)[C@@H](c3ccc(O)cc3)N12,TGI,EKVX NSCLC,> 100 µM
same,TGI,NCI/ADR-RES ovarian,> 100 µM
same,TGI,HCC-2998 colon,> 96.7 µM
same,TGI,HL-60(TB) leukemia,> 81.7 µM
same,TGI,UO-31 renal,> 100 µM
same,TGI,TK-10 renal,> 100 µM
same,TGI,MDA-MB-435,68.2 µM
same,TGI,SN12C renal,> 89.7 µM
same,TGI,IGROV1 ovarian,61.1 µM
same,TGI,HCT-15 colon,> 100 µM
same,TGI,OVCAR-5 ovarian,> 100 µM
CCN(CC)CCCn1c(=O)c2cccnc2n2c3c(=O)n(C)c(=O)n(C)c3nc12,TGI,EKVX NSCLC,> 100 µM
same,TGI,NCI/ADR-RES ovarian,> 100 µM
same,TGI,HCC-2998 colon,> 100 µM
same,TGI,HL-60(TB) leukemia,> 100 µM
same,TGI,UO-31 renal,> 100 µM
same,TGI,TK-10 renal,> 100 µM
same,TGI,MDA-MB-435,> 100 µM
same,TGI,SN12C renal,> 100 µM
same,TGI,IGROV1 ovarian,> 100 µM
same,TGI,HCT-15 colon,> 100 µM
same,TGI,OVCAR-5 ovarian,> 100 µM
O=C1CC(c2ccc([N+](=O)[O-])cc2)C2(C(=O)NC(=S)NC2=O)C(c2ccc([N+](=O)[O-])cc2)C1 (stereo not given),TGI,EKVX NSCLC,82.9 µM
same,TGI,NCI/ADR-RES ovarian,> 100 µM
same,TGI,HCC-2998 colon,49.8 µM
same,TGI,HL-60(TB) leukemia,> 100 µM
same,TGI,UO-31 renal,63.1 µM
same,TGI,TK-10 renal,46.7 µM
same,TGI,MDA-MB-435,40.4 µM
same,TGI,SN12C renal,53.4 µM
same,TGI,IGROV1 ovarian,45.2 µM
same,TGI,HCT-15 colon,58 µM
same,TGI,OVCAR-5 ovarian,87.4 µM
CC(C)(CO)N1C(=O)c2ccccc2C1(O)c1ccc(Cl)cc1 (stereo not given),TGI,EKVX NSCLC,> 100 µM
same,TGI,NCI/ADR-RES ovarian,> 100 µM
same,TGI,HCC-2998 colon,> 100 µM
same,TGI,HL-60(TB) leukemia,> 100 µM
same,TGI,UO-31 renal,> 100 µM
same,TGI,TK-10 renal,> 100 µM
same,TGI,MDA-MB-435,> 100 µM
same,TGI,SN12C renal,> 100 µM
same,TGI,IGROV1 ovarian,> 100 µM
same,TGI,HCT-15 colon,> 100 µM
same,TGI,OVCAR-5 ovarian,> 100 µM
N#Cc1c(OCCF)c2ccccc2n2c1nc1ccccc12,TGI,EKVX NSCLC,> 100 µM
same,TGI,NCI/ADR-RES ovarian,> 100 µM
same,TGI,HCC-2998 colon,> 100 µM
same,TGI,HL-60(TB) leukemia,> 100 µM
same,TGI,UO-31 renal,> 100 µM
same,TGI,TK-10 renal,> 100 µM
same,TGI,MDA-MB-435,> 100 µM
same,TGI,IGROV1 ovarian,> 100 µM
same,TGI,HCT-15 colon,> 100 µM
same,TGI,OVCAR-5 ovarian,> 100 µM
CC(=O)/C(=C/n1c(=S)sc2ccccc21)C(=O)Nc1ccccc1C,TGI,EKVX NSCLC,> 100 µM
same,TGI,NCI/ADR-RES ovarian,> 100 µM
same,TGI,HCC-2998 colon,> 100 µM
same,TGI,HL-60(TB) leukemia,> 100 µM
same,TGI,UO-31 renal,> 100 µM
same,TGI,TK-10 renal,> 100 µM
same,TGI,MDA-MB-435,> 100 µM
same,TGI,SN12C renal,> 100 µM
same,TGI,IGROV1 ovarian,> 100 µM
same,TGI,HCT-15 colon,> 100 µM
same,TGI,OVCAR-5 ovarian,> 100 µM
N#Cc1c2c(c(Nc3ccc(F)cc3)n3c1nc1ccccc13)CCC2,TGI,EKVX NSCLC,26 µM
same,TGI,NCI/ADR-RES ovarian,25 µM
same,TGI,HCC-2998 colon,41.9 µM
same,TGI,HL-60(TB) leukemia,> 100 µM
same,TGI,UO-31 renal,7.75 µM
same,TGI,TK-10 renal,6.51 µM
same,TGI,MDA-MB-435,11 µM
same,TGI,SN12C renal,4.59 µM
same,TGI,IGROV1 ovarian,11.1 µM
same,TGI,HCT-15 colon,13.1 µM
same,TGI,OVCAR-5 ovarian,13.9 µM
CN(C)c1ccc(/C(Br)=C2\OC(=O)c3ccccc32)cc1,TGI,EKVX NSCLC,> 100 µM
same,TGI,NCI/ADR-RES ovarian,> 100 µM
same,TGI,HCC-2998 colon,> 100 µM
same,TGI,HL-60(TB) leukemia,> 100 µM
same,TGI,UO-31 renal,> 100 µM
same,TGI,TK-10 renal,> 100 µM
same,TGI,MDA-MB-435,> 100 µM
same,TGI,SN12C renal,> 100 µM
same,TGI,IGROV1 ovarian,> 100 µM
same,TGI,HCT-15 colon,> 100 µM
same,TGI,OVCAR-5 ovarian,> 100 µM
CCOC(=O)C1C(=O)CC(O)(c2ccccc2)C(C(=O)OCC)C1c1ccc(OC)cc1 (stereo not given),TGI,EKVX NSCLC,> 100 µM
same,TGI,NCI/ADR-RES ovarian,> 55.9 µM
same,TGI,HCC-2998 colon,> 100 µM
same,TGI,HL-60(TB) leukemia,> 47.8 µM
same,TGI,UO-31 renal,> 100 µM
same,TGI,TK-10 renal,> 100 µM
same,TGI,MDA-MB-435,11.4 µM
same,TGI,SN12C renal,> 100 µM
same,TGI,IGROV1 ovarian,> 100 µM
same,TGI,HCT-15 colon,> 100 µM
same,TGI,OVCAR-5 ovarian,> 100 µM
O=C1/C(=C/c2ccc(Br)s2)NC(=S)N1CN1CCOCC1,TGI,EKVX NSCLC,> 100 µM
same,TGI,NCI/ADR-RES ovarian,> 100 µM
same,TGI,HCC-2998 colon,> 100 µM
same,TGI,HL-60(TB) leukemia,62.6 µM
same,TGI,UO-31 renal,> 100 µM
same,TGI,TK-10 renal,> 100 µM
same,TGI,MDA-MB-435,> 100 µM
same,TGI,SN12C renal,> 100 µM
same,TGI,IGROV1 ovarian,> 100 µM
same,TGI,HCT-15 colon,> 100 µM
same,TGI,OVCAR-5 ovarian,> 100 µM
CC1CC(C#N)=C2NCCCCN2C1=O (stereo not given),TGI,EKVX NSCLC,> 100 µM
same,TGI,NCI/ADR-RES ovarian,> 100 µM
same,TGI,HCC-2998 colon,> 100 µM
same,TGI,HL-60(TB) leukemia,> 100 µM
same,TGI,UO-31 renal,> 100 µM
same,TGI,TK-10 renal,> 100 µM
same,TGI,MDA-MB-435,> 100 µM
same,TGI,SN12C renal,> 100 µM
same,TGI,IGROV1 ovarian,> 100 µM
same,TGI,HCT-15 colon,> 100 µM
CCC[C@H](C)[C@H]1NC(=O)[C@@H](NC(=O)[C@@H](CC(C)C)N(C)C(=O)C2CCCN2C(=O)[C@H](C)O)[C@@H](C)OC(=O)[C@H](CC(C)C)N(C)C(=O)[C@@H]2CCCN2C(=O)[C@H](CC(C)C)NC(=O)[C@@H](C)C(=O)[C@H](C(C)C)OC(=O)C[C@@H]1O (stereo not given in full),TGI,EKVX NSCLC,0.339 µM
same,TGI,NCI/ADR-RES ovarian,2.62 µM
same,TGI,HCC-2998 colon,0.00551 µM
same,TGI,HL-60(TB) leukemia,0.108 µM
same,TGI,UO-31 renal,0.128 µM
same,TGI,TK-10 renal,0.0946 µM
same,TGI,MDA-MB-435,0.00519 µM
same,TGI,IGROV1 ovarian,0.0256 µM
same,TGI,HCT-15 colon,1.44 µM
same,TGI,OVCAR-5 ovarian,0.0346 µM
CN1CN(c2ccccc2)C2(CCN(CCCC3(c4cccs4)OCCO3)CC2)C1=O,TGI,EKVX NSCLC,> 100 µM
same,TGI,NCI/ADR-RES ovarian,> 100 µM
same,TGI,HCC-2998 colon,> 100 µM
same,TGI,HL-60(TB) leukemia,> 100 µM
same,TGI,UO-31 renal,> 100 µM
same,TGI,TK-10 renal,> 100 µM
same,TGI,MDA-MB-435,> 100 µM
same,TGI,SN12C renal,> 100 µM
same,TGI,IGROV1 ovarian,> 100 µM
same,TGI,HCT-15 colon,> 100 µM
same,TGI,OVCAR-5 ovarian,> 100 µM
O=C1N[C@@H]2c3c(csc3Br)C(=O)[C@@H]2O1,TGI,EKVX NSCLC,> 100 µM
same,TGI,NCI/ADR-RES ovarian,> 100 µM
same,TGI,HCC-2998 colon,39.1 µM
same,TGI,HL-60(TB) leukemia,64.9 µM
same,TGI,UO-31 renal,58.4 µM
same,TGI,TK-10 renal,80.3 µM
same,TGI,MDA-MB-435,46.9 µM
same,TGI,SN12C renal,> 100 µM
same,TGI,IGROV1 ovarian,> 100 µM
same,TGI,HCT-15 colon,> 100 µM
same,TGI,OVCAR-5 ovarian,> 100 µM
CCOP(=O)(OCC)/C(F)=C/c1ccccc1,TGI,EKVX NSCLC,> 100 µM
same,TGI,NCI/ADR-RES ovarian,> 100 µM
same,TGI,HCC-2998 colon,> 100 µM
same,TGI,HL-60(TB) leukemia,> 100 µM
same,TGI,UO-31 renal,> 100 µM
same,TGI,TK-10 renal,> 100 µM
same,TGI,MDA-MB-435,> 100 µM
same,TGI,SN12C renal,> 100 µM
same,TGI,IGROV1 ovarian,> 100 µM
same,TGI,HCT-15 colon,> 100 µM
same,TGI,OVCAR-5 ovarian,> 100 µM
